Test results as given in US8921059B2, “Method and kit for detection of guaiacol-producing bacterium” (Calpis Co., Ltd., priority 2009, dated 2014).
Entries after “also recorded” stand apart in the source; their conditions may differ.

Key:
[1] = tested on: A. acidoterrestris ATCC49025; test: Colony formation of thermotolerant acidophilic bacteria on YSG agar medium containing the substrate (Example 1); format: cell-based, Alicyclobacillus acidoterrestris; set-up: key to detected level of colonies: ++: the detected level was at or above the level of the medium without a substrate (i.e. YSG medium); +: the detected level was lower than the level of the medium without a substrate; −: undetectable; conditions: for detected level of colonies: cultivation at 45° C. for 3 days
Excerpt: (§1) A YSG agar medium containing vanillin, vanillic acid or ferulic acid was used to study the colony formation of thermotolerant acidophilic bacteria (TAB). Four bacterial strains used were A. acidoterrestris ATCC49025, A. acidiphilus JCM21417, A. acidocaldarius ATCC27009 and A. pomorum JCM21459. Among these, A. acidoterrestris ATCC49025 and A. acidiphilus JCM21417 have been reported as the bacterial strains producing guaiacol. A YSG medium (Merck K.K., YGS Agar; 20.0 g) and vanillic acid (Wako Pure Chemical Industries, Ltd.; 0 to 250 mg) were dissolved in 1000 g of water with heating and subjected to autoclave sterilization (121° C. and 15 min.). After cooling to about 50° C., pH was adjusted to 3.7 with 10% sulfuric acid and a plate medium was prepared. The suspensions of the respective bacterial strains were subjected to a heat-shock treatment at 70° C. for 20 min. The bacterial suspensions were serially diluted with phosphate buffered saline up to 10^3 CFU/mL and 100 μL from the dilutions was smeared on the plates for culture. Cultivation was carried out at 45° C. for 3 days before the colonies formed were visually inspected. Similar experiments were carried out with replacing vanillic acid with vanillin or ferulic acid. When the medium was not easily solidified, the amount of agar was appropriately adjusted.

A. acidiphilus JCM21417 = test: as above; format: cell-based, Alicyclobacillus acidiphilus; set-up: key to detected level of colonies: ++: the detected level was at or above the level of the medium without a substrate (i.e. YSG medium); +: the detected level was lower than the level of the medium without a substrate; −: undetectable; conditions: for detected level of colonies: cultivation at 45° C. for 3 days
Method: as §1, with “A YSG medium (Merck K.K., YGS Agar; 20.0 g) and vanillic acid (Wako Pure Chemical Industries, Ltd.; 0 to 250 mg) were dissolved in 1000 g of water with heating and subjected to autoclave sterilization (121° C. and 15 min.).” left out

[2] = tested on: A. acidocaldarius ATCC27009; test: as above; format: cell-based, Alicyclobacillus acidocaldarius; set-up: key to detected level of colonies: ++: the detected level was at or above the level of the medium without a substrate (i.e. YSG medium); +: the detected level was lower than the level of the medium without a substrate; −: undetectable; conditions: for detected level of colonies: cultivation at 45° C. for 3 days; for colonies detected: 45° C. for 3 days
Method: as §1, with “A YSG medium (Merck K.K., YGS Agar; 20.0 g) and vanillic acid (Wako Pure Chemical Industries, Ltd.; 0 to 250 mg) were dissolved in 1000 g of water with heating and subjected to autoclave sterilization (121° C. and 15 min.).” left out

A. pomorum JCM21459 = test: as above; format: cell-based, Alicyclobacillus pomorum; set-up: key to detected level of colonies: ++: the detected level was at or above the level of the medium without a substrate (i.e. YSG medium); +: the detected level was lower than the level of the medium without a substrate; −: undetectable; conditions: for detected level of colonies: cultivation at 45° C. for 3 days; for colonies detected: 45° C. for 3 days
Method: as §1, with “A YSG medium (Merck K.K., YGS Agar; 20.0 g) and vanillic acid (Wako Pure Chemical Industries, Ltd.; 0 to 250 mg) were dissolved in 1000 g of water with heating and subjected to autoclave sterilization (121° C. and 15 min.).” left out

[3] = tested on: A. acidoterrestris ATCC49025; test: Effects of culture temperature on the detection level of colonies (Example 2); format: cell-based, Alicyclobacillus acidoterrestris; conditions: for number of colonies, relative value (YSG medium without any substrate at 45° C. for 3 days = 100): 75 ppm in YSG medium
Method: Effects of culture temperature on the detection level of colonies of A. acidoterrestris ATCC49025 were studied using YSG agar medium containing vanillin, vanillic acid or ferulic acid. […] The suspensions containing the same number of bacterial cells of A. acidoterrestris ATCC49025 were smeared on the plates and cultured at 45° C. or 30° C. A YSG medium without any substrate was used as a control. The values are expressed as relative values to the number of colonies obtained after cultivation at 45° C. for 3 days in a YSG medium without any substrate being regarded as 100.

[4] = used instead of vanillic acid, concentration not given

COc1cc(C(=O)O)ccc1O [vanillic acid]
detected level of colonies ([1]; 10 ppm in YSG agar): ++
detected level of colonies ([1]; 50 ppm in YSG agar): ++
detected level of colonies ([1]; 75 ppm in YSG agar): ++
colonies detected compared with medium without vanillic acid ([1]; 75 ppm, 45° C. for 3 days): the same level or more colonies were detected as in the medium without vanillic acid
detected level of colonies ([1]; 100 ppm in YSG agar): ++
colonies detected compared with medium without vanillic acid ([1]; 100 ppm, 45° C. for 3 days): the same level or more colonies were detected as in the medium without vanillic acid
detected level of colonies ([1]; 150 ppm in YSG agar): ++
colonies detected compared with medium without vanillic acid ([1]; 150 ppm, 45° C. for 3 days): detected at the same level as in the medium without vanillic acid
detected level of colonies ([1]; 200 ppm in YSG agar): ++
colonies detected compared with medium without vanillic acid ([1]; 200 ppm, 45° C. for 3 days): detected at the same level as in the medium without vanillic acid
detected level of colonies ([1]; 225 ppm in YSG agar): +
detection sensitivity of AAT ([1]; 225 ppm, 45° C. for 3 days): lower
detected level of colonies ([1]; 250 ppm in YSG agar): −
colonies detected ([1]; 250 ppm or more, 45° C. for 3 days): no colonies were detected
detected level of colonies (A. acidiphilus JCM21417; 10 ppm in YSG agar): ++
detected level of colonies (A. acidiphilus JCM21417; 50 ppm in YSG agar): ++
detected level of colonies (A. acidiphilus JCM21417; 75 ppm in YSG agar): ++
colonies detected compared with medium without vanillic acid (A. acidiphilus JCM21417; 75 ppm, 45° C. for 3 days): the same level or more colonies were detected as in the medium without vanillic acid
detected level of colonies (A. acidiphilus JCM21417; 100 ppm in YSG agar): −
colonies detected (A. acidiphilus JCM21417; 100 ppm, 45° C. for 3 days): no colony was detected
detected level of colonies (A. acidiphilus JCM21417; 150 ppm in YSG agar): −
detected level of colonies (A. acidiphilus JCM21417; 200 ppm in YSG agar): −
detected level of colonies (A. acidiphilus JCM21417; 225 ppm in YSG agar): −
detected level of colonies (A. acidiphilus JCM21417; 250 ppm in YSG agar): −
detected level of colonies ([2]; 10 ppm in YSG agar): ++
detected level of colonies ([2]; 50 ppm in YSG agar): −
detected level of colonies ([2]; 75 ppm in YSG agar): −
colonies detected ([2]; 75 ppm): no colony was detected
detected level of colonies ([2]; 100 ppm in YSG agar): −
colonies detected ([2]; 100 ppm): no colony was detected
detected level of colonies ([2]; 150 ppm in YSG agar): −
detected level of colonies ([2]; 200 ppm in YSG agar): −
detected level of colonies ([2]; 225 ppm in YSG agar): −
detected level of colonies ([2]; 250 ppm in YSG agar): −
detected level of colonies (A. pomorum JCM21459; 10 ppm in YSG agar): ++
detected level of colonies (A. pomorum JCM21459; 50 ppm in YSG agar): −
detected level of colonies (A. pomorum JCM21459; 75 ppm in YSG agar): −
colonies detected (A. pomorum JCM21459; 75 ppm): no colony was detected
detected level of colonies (A. pomorum JCM21459; 100 ppm in YSG agar): −
colonies detected (A. pomorum JCM21459; 100 ppm): no colony was detected
detected level of colonies (A. pomorum JCM21459; 150 ppm in YSG agar): −
detected level of colonies (A. pomorum JCM21459; 200 ppm in YSG agar): −
detected level of colonies (A. pomorum JCM21459; 225 ppm in YSG agar): −
detected level of colonies (A. pomorum JCM21459; 250 ppm in YSG agar): −
detection sensitivity compared to the medium without any substrate ([3]; 50 ppm): improved
number of colonies, relative value (YSG medium without any substrate at 45° C. for 3 days = 100) ([3]; 30° C., 5 days): 186
number of colonies, relative value (YSG medium without any substrate at 45° C. for 3 days = 100) ([3]; 45° C., 3 days): 183
number of colonies at 30° C. for 5 days compared with 45° C. for 3 days ([3]; 75 ppm in solid medium): the same number of colonies is obtained; also recorded: almost the same number of colonies was detected
colonies detected compared to the medium without any substrate ([3]; 75 ppm, 45° C.): more colonies were detected

COc1cc(/C=C/C(=O)O)ccc1O [ferulic acid]
detected level of colonies ([1]; 25 ppm in YSG agar): ++
detected level of colonies ([1]; 50 ppm in YSG agar): ++
detected level of colonies ([1]; 75 ppm in YSG agar): −
detected level of colonies (A. acidiphilus JCM21417; 25 ppm in YSG agar): ++
detected level of colonies (A. acidiphilus JCM21417; 50 ppm in YSG agar): −
detected level of colonies (A. acidiphilus JCM21417; 75 ppm in YSG agar): −
detected level of colonies ([2]; 25 ppm in YSG agar): −
detected level of colonies ([2]; 50 ppm in YSG agar): −
detected level of colonies ([2]; 75 ppm in YSG agar): −
detected level of colonies (A. pomorum JCM21459; 25 ppm in YSG agar): −
detected level of colonies (A. pomorum JCM21459; 50 ppm in YSG agar): −
detected level of colonies (A. pomorum JCM21459; 75 ppm in YSG agar): −
detection sensitivity compared to the medium without any substrate ([3]; 25 ppm): improved
number of colonies at 30° C. for 5 days compared with 45° C. for 3 days [3, 4]: The same tendency was observed

COc1cc(C=O)ccc1O [vanillin]
detected level of colonies ([1]; 500 ppm in YSG agar): ++
detected level of colonies ([1]; 750 ppm in YSG agar): ++
detected level of colonies ([1]; 900 ppm in YSG agar): ++
detected level of colonies ([1]; 950 ppm in YSG agar): ++
detected level of colonies ([1]; 1000 ppm in YSG agar): +
detected level of colonies (A. acidiphilus JCM21417; 500 ppm in YSG agar): +
detected level of colonies (A. acidiphilus JCM21417; 750 ppm in YSG agar): +
detected level of colonies (A. acidiphilus JCM21417; 900 ppm in YSG agar): +
detected level of colonies (A. acidiphilus JCM21417; 950 ppm in YSG agar): −
detected level of colonies (A. acidiphilus JCM21417; 1000 ppm in YSG agar): −
detected level of colonies ([2]; 500 ppm in YSG agar): −
detected level of colonies ([2]; 750 ppm in YSG agar): −
detected level of colonies ([2]; 900 ppm in YSG agar): −
detected level of colonies ([2]; 950 ppm in YSG agar): −
detected level of colonies ([2]; 1000 ppm in YSG agar): −
detected level of colonies (A. pomorum JCM21459; 500 ppm in YSG agar): −
detected level of colonies (A. pomorum JCM21459; 750 ppm in YSG agar): −
detected level of colonies (A. pomorum JCM21459; 900 ppm in YSG agar): −
detected level of colonies (A. pomorum JCM21459; 950 ppm in YSG agar): −
detected level of colonies (A. pomorum JCM21459; 1000 ppm in YSG agar): −
detection sensitivity compared to the medium without any substrate ([3]; 750 ppm): improved
number of colonies at 30° C. for 5 days compared with 45° C. for 3 days [3, 4]: The same tendency was observed
